Assay results as given in publication PMC4685943 (ACS Chemical Biology, 2015).

Experiments:
DDR2 = molecular target: T1, DDR2 (Homo sapiens, UniProt Q16832); test: DDR2 phosphorylation, IP/Western blot in 293T cells expressing wild type DDR2; type: cell-based; conditions: 293T cells expressing wild type DDR2, IP anti-DDR2 / blot 4G10
T1 sequence (Q16832 22-855): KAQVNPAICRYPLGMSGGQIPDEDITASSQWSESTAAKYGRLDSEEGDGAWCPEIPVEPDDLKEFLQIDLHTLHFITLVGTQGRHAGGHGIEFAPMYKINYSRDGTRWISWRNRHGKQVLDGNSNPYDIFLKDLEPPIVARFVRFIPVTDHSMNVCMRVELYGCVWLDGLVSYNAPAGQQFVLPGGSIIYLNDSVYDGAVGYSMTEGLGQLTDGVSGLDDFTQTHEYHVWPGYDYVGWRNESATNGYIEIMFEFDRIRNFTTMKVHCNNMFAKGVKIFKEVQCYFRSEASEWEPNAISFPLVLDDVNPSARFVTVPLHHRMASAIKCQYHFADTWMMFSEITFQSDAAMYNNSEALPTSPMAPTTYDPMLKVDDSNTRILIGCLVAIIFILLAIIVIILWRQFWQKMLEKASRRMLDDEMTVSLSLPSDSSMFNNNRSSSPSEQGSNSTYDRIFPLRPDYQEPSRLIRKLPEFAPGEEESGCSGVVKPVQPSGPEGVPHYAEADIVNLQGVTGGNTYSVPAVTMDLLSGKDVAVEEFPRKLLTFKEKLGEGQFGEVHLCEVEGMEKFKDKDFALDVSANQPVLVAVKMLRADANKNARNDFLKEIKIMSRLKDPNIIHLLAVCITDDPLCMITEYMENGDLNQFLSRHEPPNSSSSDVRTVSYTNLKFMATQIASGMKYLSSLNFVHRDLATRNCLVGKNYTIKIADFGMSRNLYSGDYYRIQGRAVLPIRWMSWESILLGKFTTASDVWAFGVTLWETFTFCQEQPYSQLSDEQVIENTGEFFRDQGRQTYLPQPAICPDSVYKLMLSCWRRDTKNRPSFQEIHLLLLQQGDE

NCI-H2286 and HCC-366 = test: Cell proliferation assays in DDR2 mutated cell lines; type: cell-based; conditions: NCI-H2286 and HCC-366, 5 days, single agent

effect on p-DDR2 (DDR2)	Structure (SMILES)	antiproliferative potency in DDR2 mutated cell lines (NCI-H2286 and HCC-366)
potent inhibition	Cc1nc(Nc2ncc(C(=O)Nc3c(C)cccc3Cl)s2)cc(N2CCN(CCO)CC2)n1 [Dasatinib]	–
–	CN1CCN(CCOc2cc(OC3CCOCC3)c3c(Nc4c(Cl)ccc5c4OCO5)ncnc3c2)CC1 [Saracatinib]	greater inhibition of cell proliferation as compared to compound 1
